Experimental data from PubChem BioAssay (NCI).
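How tested: cells in 96-well plates exposed to compound for 48 hours at five concentrations. TGI: concentration producing complete growth inhibition.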

How the values were obtained:
Assay in all cases: DTP human tumour cell line panel, 48 h
HS 578T breast = test system: HS 578T breast
NCI-H226 lung = test system: NCI-H226 lung
UACC-62 melanoma = test system: UACC-62 melanoma
HL-60(TB) leukemia = test system: HL-60(TB) leukemia
SF-539 CNS = test system: SF-539 CNS
LOX IMVI melanoma = test system: LOX IMVI melanoma
MALME-3M melanoma = test system: MALME-3M melanoma
MDA-MB-231 breast = test system: MDA-MB-231 breast
MOLT-4 leukemia = test system: MOLT-4 leukemia
MCF7 breast = test system: MCF7 breast
UACC-257 melanoma = test system: UACC-257 melanoma
SN12C renal = test system: SN12C renal
OVCAR-5 ovarian = test system: OVCAR-5 ovarian
DU-145 prostate = test system: DU-145 prostate
CCRF-CEM leukemia = test system: CCRF-CEM leukemia

SMILES	TGI (HS 578T breast) [µM]	TGI (NCI-H226 lung) [µM]	TGI (UACC-62 melanoma) [µM]	TGI (HL-60(TB) leukemia) [µM]	TGI (SF-539 CNS) [µM]	TGI (LOX IMVI melanoma) [µM]	TGI (MALME-3M melanoma) [µM]	TGI (MDA-MB-231 breast) [µM]	TGI (MOLT-4 leukemia) [µM]	TGI (MCF7 breast) [µM]	TGI (UACC-257 melanoma) [µM]	TGI (SN12C renal) [µM]	TGI (OVCAR-5 ovarian) [µM]	TGI (DU-145 prostate) [µM]	TGI (CCRF-CEM leukemia) [µM]
COc1ccc(-c2nc(N(C)C)c3ccccc3n2)cc1	59.2	21.8	37.6	32.2	42.8	28.8	42.1	96.5	15.8	24.1	32.6	39.8	62.2		
CC1=NN(c2nc(N)nc(C(C)Sc3cc(Cl)c(C)cc3S(N)(=O)=O)n2)C(C)(C)C1 (configuration not stated)	> 10	> 10		> 10	> 10	> 10	> 10		> 10	> 10	> 10	> 10	> 10	> 10	> 10
COC(=O)c1ccccc1/C=C1\Cc2cc3c(cc2C1=O)CCC3		> 100	> 100	> 100	> 100	> 100	> 100	> 100	> 100	> 100	> 100	> 100	> 100	> 100	
CC(C)(C)c1ccc(-c2nc3ccccc3c(=O)o2)cc1	> 100		> 100	48.8	> 100	37.4	> 100		47.8	62.2	> 100	> 100	> 100	> 100	44.2
COc1ccc(C(=O)/C=C2\c3ccccc3C(=O)N2C)cc1	> 100		> 100		> 100	> 100	> 100	> 100	> 100	> 100	> 100	> 100	> 100	> 100	> 100
Cc1ccc(S(=O)(=O)c2c(N)c3nccn3c3nc4ccccc4nc23)cc1			> 100	> 100	> 100	> 100	> 100		> 100		> 100	> 100	> 100		> 100
CC1(C)N(OC2CCCCO2)C(c2ccccc2)C(c2ccccc2)=[N+]1[O-] (configuration not stated)	> 100	> 100	> 100	> 100	> 100	> 100	> 100	> 100	> 100	> 100	> 100	> 100	> 100		> 100
CC1=C2C(=O)C3[C@@H](CCC4=CC(=O)CC[C@@]43C)C2CC[C@]12O[C@@H]1C[C@H](C)CN[C@H]1[C@H]2C (some centres not stated)		> 100	61	28.2	> 100	> 100			41.4		> 100	> 100			40.1
CC(=O)OCc1cccc(O)c1C(=O)CCC=C(C)C	> 100	> 100	> 100	> 100	> 100	> 100	> 100		> 100	> 100	> 100	> 100	> 100	> 100	> 100
CCCCCCc1cc2cc(C(=O)Nc3ccccc3F)c(=N)oc2cc1O	63.8		36.1	31.9	39.3	19.4	57.6		90.5	39.1	42.2		50.9	25.2	21.7
CC(=O)O[C@H]1C(=O)[C@@]2(C)[C@H]([C@H](OC(=O)c3ccccc3)[C@]3(O)C[C@H](OC(=O)[C@H](O)[C@@H](NC(=O)c4ccccc4)C4CCCCC4)C(C)=C1C3(C)C)[C@]1(OC(C)=O)CO[C@@H]1C[C@@H]2O	< 0.01	> 100	52.2	< 0.01	0.0214	> 56.4	95	28.6	> 51.6	25.9			0.673		> 62.7
O=C1C=C(c2c(-c3ccccc3)[nH]c3ccccc23)C(=O)N1c1ccccc1	52.8	68.5	27.9	24.1	39.2	24	23.9	25.6	> 100		30.6	22.5	33.3	15.7	49.4
C/C(=N\Nc1nc2ccccc2[nH]1)c1ccncn1	> 100			0.054	> 100	> 42.5	> 100	> 100	> 100	> 39.2	> 31.6	10.2	> 100		> 36.6
Cc1ccc(C2(C)NC(=S)N(NC(N)=S)C2=S)cc1 (configuration not stated)		> 100	> 100	> 100	> 100	> 100	> 100		> 100		> 100	> 100			> 100
CN(C)C1(C(=O)O)CC1	> 100	> 100		> 100	> 100	> 100	> 100		> 100	> 100	> 100	> 100	> 100	> 100	> 100
Cc1ccc(S(=O)(=O)NC(=O)C2(Br)S(=O)(=O)OCCOS2(=O)=O)cc1		> 100	> 100	> 100	> 100	> 100	> 100		> 100		> 100	> 100	> 100		> 100
O=c1n(CCCN2CCN(c3cccc(Cl)c3)CC2)nc2n1-c1ccc3ccccc3c1SC2	> 100	> 100	> 100	> 100	> 100	> 100			> 100	> 100	> 100	> 100	> 100	> 100	> 100
COc1cc(COC(=O)N2CCCCC2C(=O)O)c([N+](=O)[O-])cc1OC (configuration not stated)	> 100	> 100	> 100	> 100	> 100		> 100		> 100	> 100	> 100	> 100	> 100	> 100	> 100
